According to EP0913397B1, “A proces for the synthesis of 1-(4-Arylpiperazine-1-y1)-3-(2-oxypyrrolidin/piperidin-1-yl)propanes as therapeutic agents for hypertension, ischemia, cardiovascular and other adrenergic receptors related disorders” (COUNCIL OF SCIENTIFIC AND INDUSTRIAL RESEARCH, priority 1997, dated 1999):

What was measured:
[1] = tested on: anaesthetized (pentobarbitone sodium 35 mg/kg i.v.) cat; experiment: Effect on blood pressure and adrenaline vasopressure response in anaesthetized cat (Table 2); type: in vivo
Experimental: Table 2: Effect on blood pressure, heart rate and adrenaline vasopressure response at an anaesthetized (pentobarbitone sodium 35 mg/kg i.v.) cat.
(§1) • (a) Cats (2.6-4.0 kg) of either sex anaesthetized with pentobarbitone sodium ([…] i.v.) and showing basal mean arterial blood pressure below 150 mm (Hg) were categorised as normotensive and above 150 mm Hg as hypertensive. Arterial blood pressure (BP) was recorded from one of the carotid artery through a stathum P23 DC pressure transducer and 7P1 low level DC preamplifier on a Grass Model P7 Polygraph, Signals from 7P 1 preamplifier were used to trigger 7P4 Tachograph preamplifier for recording the heart rate (HR). Right femoral vein and Trachea were cannulated for intravenous injections and artificial ventilation respectively. Control responses to intravenous injection of noradrenaline (2-4 ug); acetyl choline (1-2 ug); histamine (1-2 ug) and isoprenaline (1-2 ug) were taken before and after the administration of test doses of each compounds.

[2] = tested on: Langendorff perfused rat heart preparation; experiment: Cardioprotective activity, Langendorff perfused rat heart, prolonged period of ischemic insult
Experimental: Further, in Langendorff perfused rat heart preparation subjected to even up to 90 min. global ischemia, the compound at 0.001 ug/ml conc. given at the time of reperfusion revived normal rhythmic contraction started within 2 min. (Table 1) and incidence of reperfusion induced arrhythmia were abolished. Table 1: Compound administered at the time reperfusion at the dose of 0.001 ug/ml on prolong period (90min.) of ischemic insult.
The rats were killed by decapitation, heart were rapidly excised and placed in ice-cold HEPES tyrode buffer. Then isolated hearts were perfused retrogradely through coronary arteries using the Langendorff technique. The perfusion buffer consisted (in mM) NaCl 137, KCl 5.4, CaCl2 1.8, MgCl 2 1.0, glucose 11.2 and HEPES 3.0. The buffer (pH 7.4) was continuously gassed with oxygen and maintained at 37°C. Coronary flow rate was maintained at 10 ml/min. The heart contracted spontaneously. The perfused heart was allowed to equilibrate for 30 min. before initiation of any insult protocol. The test compounds were given at the time of reperfusion. Some of the compounds were dissolved in ethanol. Final concentration of ethanol in the perfusion buffer was 0.0001% and had no effect of its own on the parameter used. • (a) For brief period of ischemic insult (Hideo et al. Pathophysiology and pathogenesis of stunned myocardium. J. Clin. Invest., 79, 950-961, 1987). Ischemia was initiated by stopping the flow for 16 min. followed by 30 min. reperfusion period. The durations were decided on the initial pilot experiments leading to 50% recovery of function. • (b) For prolong period of ischemic insult (Becker, L.C. & Ambrosio, G. Myocardial consequences of reperfusion Prog. Cardiovas. Dis., 30, 23-44, 1987). Ischemia was initiated by stopping the flow for […] by 30 min. reperfusion.

[3] = tested on: Isolated Guinea pig ileum preparation; experiment: Isolated Guinea pig ileum preparation, antihistaminic activity; settings: 0.5-5.0 ug/ml
[4] = tested on: histamine induced bronchoconstriction; experiment: Konzett and Rossler preparation
Isolated aortic strip = experiment: Isolated aortic strip, endothelin induced contraction
cat = experiment: In vivo drug antagonism studies in cat; settings: 2 uMol dose i.v. in cat
[5] = tested on: Rat aortic ring preparation; experiment: Rat aortic ring preparation, NE induced contraction
Normotensive cat = experiment: Effect on blood pressure, heart rate and adrenaline vasopressor response, anaesthetized normotensive cat; type: in vivo; settings: 10 uMol/kg i.d.
Experimental: (§2) 2. Effect on blood pressure, heart rate and adrenaline vasopressor response of anaesthetized (pentobarbitone sodium 40 & 60 mg/kg i.p. in cat and rat respectively) normotensive & hypertensive rat & cat model preparations.
as §1

[6] = tested on: Hypertensive rat model preparation; experiment: Effect on blood pressure, heart rate and adrenaline vasopressor response, anaesthetized hypertensive rat model preparation; type: in vivo
Experimental: as §2, §1

[7] = 0.001 ug/ml given at the time of reperfusion, up to 90 min. global ischemia

## CCc1ccccc1N1CCN(CCCN2CCCCC2=O)CC1 [Ar=C6H4-2-C2H5, n=2, 1-[4-(Z-ethylphenyll)piperazin-1-yl]-3-[2-oxopiperidin-1-yl]propane]
[1]; 2.0 umol/kg i.v.
  B. P. fall %: 35%
  Dur.: 55 min
[1]; 10.0 umol/kg i.v.
  Adrenaline vasopressure response % inhibition: R (R=Reversal)
  B. P. fall %: 20%
  Dur.: 63 min

## COC(=O)C1=C(C)NC(C)=C(C(=O)OC)C1c1ccccc1[N+](=O)[O-] [Nifedipine, reference compound]
[2]; 10^-6M, ischemic insult 45 min.
  Onset: 2.5 min

## O=C1CCCN1CCCN1CCN(c2ccc(F)cc2)CC1 [Ar=C6H4-4-F, n=1, 1-[4-(4-fluorophenyl)piperazin-1-yl]-3-[2-oxopyrrolidin-1-yl]propane]
[3]
  antihistaminic activity: significant antihistaminic activity
[4]
  antihistaminic activity against histamine induced bronchoconstriction: some antihistaminic activity
[2]; [7]
  incidence of reperfusion induced arrhythmia: abolished
  time to start of normal rhythmic contraction: ≤ 2 min
Isolated aortic strip
  Endothelin induced contraction: inhibited significantly
Isolated aortic strip; after washing
  Response to endothelin after washing the preparation: relaxation rather than contraction
cat; glibenclamide pretreatment
  reduction of the fall in blood pressure: only partially reduced
cat; pretreatment with Dup-753
  reduction of antihypertensive effect: 33%
cat; pretreatment with atropine sulphate
  alteration of antihypertensive effect: failed to alter
cat; pretreatment with mepyramine maleate
  alteration of antihypertensive effect: failed to alter
cat; pretreatment with propranolol
  alteration of antihypertensive effect: failed to alter
cat; pretreatment with yohimbine
  alteration of antihypertensive effect: failed to alter
[5]
  NE induced contraction: inhibited
Normotensive cat; post treatment
  Heart rate Pre/post treatment (post): 170 beats/min
Normotensive cat; pre treatment
  Heart rate Pre/post treatment (pre): 200 beats/min
[6]; 5 uMol/kg i.d.
  Heart rate Pre/post treatment (post): 320 beats/min
[6]; 10 uMol/kg i.d.
  Heart rate Pre/post treatment (post): 340 beats/min
[6]; 20 uMol/kg i.d., pre treatment
  Heart rate Pre/post treatment (pre): 310 beats/min

## CCc1ccc(N2CCN(CCCN3CCCC3=O)CC2)cc1 [Ar=C6H4-4-C2H5, n=1, 1-[4-(4-ethylphenyl)piperazin-1-yl]-3-[2-oxopyrrolidin-1-yl]propane]
[1]; 2.0 umol/kg i.v.
  Dur.: Tr

## O=C1CCCCN1CCCN1CCN(c2cccc(C(F)(F)F)c2)CC1 [Ar=C6H4-3-CF3, n=2, 1-[4-(3-trifluoromethylphenyl)piperazin-1-yl]-3-[2-oxopiperidin-1-yl]propane]
[1]; 10.0 umol/kg i.v.
  Dur.: Tr
